# Test results: US20140336182A1, “Aurora Kinase Modulators and Method of Use” (Amgen Inc., priority 2013, published 2014)
# Test system: HeLa cells
# Assay: HeLa cell 24 hr ploidy assay (DNA content)
# Type: cell-based
# Settings: Homo sapiens, HeLa, 4N ploidy, average, read-out: 24h_4NPloidy EC50_IP (uM Avg)
# Procedure, shortened: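 DNA content measured by Hoechst 33342 nuclear staining (0.5 ug/ml, 45 min RT) and high-content imaging of fixed HeLa cells after 24 h compound exposure in 0.25% DMSO. Fractions of 4N and >4N cells fitted to dose curves giving EC50 IP, EC50 transit, Max and Min.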
row,Compound,EC50
1,COc1cc2nccc(Oc3ccc(Nc4nnc(-c5ccc(C)c(C)c5)c5ccccc45)cc3)c2cc1OC [compound 74],0.018 µM
2,"COc1cnc2c(Oc3ccc(Nc4nnc(-c5cccc(C)n5)c5ccccc45)cn3)ccnc2c1 [compound 128, N-(6-((7-(methyloxy)-1,5-naphthyridin-4-yl)oxy)-3-pyridinyl)-4-(6-methyl-2-pyridinyl)-1-phthalazinamine]",> 1.2 µM
3,COc1cccc(-c2nnc(Nc3ccc(Oc4ccnc5cc(C#N)ccc45)cc3)c3ccccc23)n1 [compound 102],0.028 µM
4,N#Cc1ccc2c(Oc3ccc(Nc4nnc(-c5ccccc5)c5ccccc45)cc3)ccnc2c1 [compound 105],0.036 µM
5,"COc1cnc2c(Oc3ccc(Nc4nnc(N5CCCCCC5)c5ccccc45)cc3)ccnc2c1 [Example 32, 4-(azepan-1-yl)-N-(4-(7-methoxy-1,5-naphthyridin-4-yloxy)phenyl)phthalazin-1-amine]",0.036 µM
6,COc1cc2nccc(Oc3ccc(Nc4nnc(-c5cccc(COC(C)=O)n5)c5ccccc45)cc3)c2cc1OC [compound 113],0.048 µM
7,"COc1cnc2c(Oc3ccc(Nc4nnc(-c5cc(C)ccn5)c5ccccc45)cc3)ccnc2c1 [compound 116, N-(4-((7-(methyloxy)-1,5-naphthyridin-4-yl)oxy)phenyl)-4-(4-methyl-2-pyridinyl)-1-phthalazinamine]",0.179 µM
8,COc1cc2nccc(Oc3ccc(Nc4nnc(-c5cccc(C)n5)c5ccccc45)cn3)c2cn1 [compound 127],> 1.2 µM
9,COc1cnc2c(Oc3ccc(Nc4nnc(-c5ccc6c(c5)CC(C)(C)O6)c5ccccc45)cc3)ccnc2c1 [compound 136],0.099 µM
10,"COc1cnc2c(Oc3ccc(Nc4nnc(-c5nc(C)cs5)c5ccccc45)cc3)ccnc2c1 [compound 82, N-(4-((7-(methyloxy)-1,5-naphthyridin-4-yl)oxy)phenyl)-4-(4-methyl-1,3-thiazol-2-yl)-1-phthalazinamine]",0.061 µM
11,"CCc1cc(-c2ccccc2)nnc1Nc1ccc(Oc2ccnc3cc(C(N)=O)ccc23)cc1 [compound 49, 4-((4-((4-ethyl-6-phenyl-3-pyridazinyl)amino)phenyl)oxy)-7-quinolinecarboxamide]",0.028 µM
12,COc1cc2nccc(Oc3ccc(Nc4nnc(-c5cccc(C)n5)c5ccccc45)cc3)c2cn1 [compound 110],0.124 µM
13,COc1cnc2c(Oc3ccc(Nc4nnc(N5CCN(C)CC5)c5ccccc45)cc3)ccnc2c1 [compound 85],0.085 µM
14,"COc1cnc2c(Oc3ccc(Nc4nnc(-c5cc6ccccc6n5C)c5ccccc45)cc3)ccnc2c1 [compound 143, 4-(1-methyl-1H-indol-2-yl)-N-(4-((7-(methyloxy)-1,5-naphthyridin-4-yl)oxy)phenyl)-1-phthalazinamine]",0.094 µM
15,CCCc1cc(-c2ccccc2)nnc1Nc1ccc(Oc2ccnc3cc(OC)cnc23)cc1 [compound 156],0.061 µM

# Same assay, conditions: Homo sapiens, HeLa, HeLa cells, 4N ploidy, average, read-out: 24h_4NPloidy EC50_IP (uM Avg)
row,Compound,EC50
1,N#Cc1ccc2nccc(Oc3ccc(Nc4nnc(-c5ccccc5)c5ccccc45)cc3)c2c1 [compound 592],0.147 µM
2,COc1ccc2nccc(Sc3ccc(Nc4nnc(-c5cc(C)cs5)c5ccccc45)cc3)c2n1 [compound 549],0.009 µM
3,c1ccc(-c2nnc(Nc3ccc(Sc4ccnc5ccsc45)cc3)c3ccccc23)cc1 [compound 355],0.015 µM
4,COc1cnc2c(Oc3ccc(Nc4nnc(-c5ccc(C)cc5)c5ccccc45)cc3F)ccnc2c1 [compound 187],0.006 µM
5,CCc1cc(-c2ccc(C)cc2)nnc1Nc1ccc(Oc2ccnc3cc(OC)cnc23)cc1 [compound 199],0.018 µM
6,Clc1ccc(-c2nnc(Nc3ccc(Sc4ccnc5ccccc45)cc3)c3ccccc23)cc1 [compound 333],≥ 1.2 µM
7,"Oc1ccc2nccc(Sc3ccc(Nc4nnc(-c5ccc(Cl)cc5)c5ccccc45)cc3)c2c1 [Example 388, 4-(4-(4-(4-Chlorophenyl)phthalazin-1-ylamino)phenylthio)quinolin-6-ol]",0.013 µM
8,CCN(CC)C(=O)c1cc2nccc(Oc3ccc(Nc4nnc(-c5ccc(Cl)cc5)c5ccccc45)cc3)c2s1 [compound 270],0.082 µM
9,FC(F)(F)Oc1ccc2c(Oc3ccc(Nc4nnc(-c5ccccc5)c5ccccc45)cc3)ccnc2c1 [compound 496],0.397 µM
10,Cc1csc(-c2nnc(Nc3ccc(Sc4ccnc5cc[nH]c45)cc3)c3ccccc23)c1 [compound 464],0.001 µM
11,COc1cnc2c(Sc3ccc(Nc4nnc(-c5ccccc5)c5ccccc45)cc3F)ccnc2c1 [compound 519],0.009 µM
12,COCCOc1nnc(Nc2ccc(Sc3ccnc4cc(OC)cnc34)cc2)c2ccccc12 [compound 515],0.018 µM
13,COc1cnc2c(Oc3ccc(Nc4nnc(-c5cnn(C)c5)c5ccccc45)cc3)ccnc2c1 [compound 216],0.074 µM
14,"COc1cnc2c(Oc3ccc(Nc4nnc(-c5ccc(Cl)c(OCCS(C)(=O)=O)c5)c5ccccc45)cc3)ccnc2c1 [Example 394, 4-(4-Chloro-3-(2-(methylsulfonyl)ethoxy)phenyl)-N-(4-(7-methoxy-1,5-naphthyridin-4-yloxy)phenyl)phthalazin-1-amine]",0.045 µM
15,c1ccc(-c2nnc(Nc3ccc(Oc4ccnc5cc(-c6cn[nH]c6)ccc45)cc3)c3ccccc23)cc1 [compound 417],0.001 µM
16,Clc1ccc(-c2nnc(Nc3ccc(Oc4ccnc5ccoc45)cc3)c3ccccc23)cc1 [compound 483],0.102 µM
17,COc1cnc2c(Oc3ccc(Nc4nnc(-c5ccc([S+](C)[O-])cc5)c5ccccc45)cc3)ccnc2c1 (stereo not shown) [compound 262],> 1.2 µM
18,COc1cnc2c(Oc3ccc(Nc4nnc(-c5cc(C)no5)c5ccccc45)cc3)ccnc2c1 [compound 350],0.077 µM
19,Clc1ccc(-c2nnc(Nc3ccc(Oc4ncnc5ccccc45)cc3)c3ccccc23)cc1 [compound 562],0.026 µM
20,COc1cnc2c(Sc3ccc(Nc4nnc(N5CCC(F)CC5)c5ccccc45)cc3)ccnc2c1 [compound 557],0.026 µM
21,COc1cnc2c(Oc3ccc(Nc4nnc(-c5ccc(OC)c(F)c5)c5ccccc45)cc3)ccnc2c1 [compound 227],0.061 µM
22,COc1cnc2c(Oc3ccc(Nc4nnc(C5CC5)c5ccccc45)cc3)ccnc2c1 [compound 543],0.281 µM

row,Compound,EC50
1,COc1ccc2nccc(Sc3ccc(Nc4nnc(-c5ccc(Cl)cc5)c5ccccc45)cc3)c2n1 [compound 348],0.012 µM
2,COc1cnc2c(Oc3ccc(Nc4nnc(-c5ccc(Cl)c(C)c5)c5ccccc45)cc3)ccnc2c1 [compound 236],0.011 µM
3,COc1cc(F)cc2nccc(Oc3ccc(Nc4nnc(-c5ccc(Cl)cc5)c5ccccc45)cc3)c12 [compound 437],0.005 µM
4,COc1cnc2c(Oc3ccc(Nc4nnc(-c5ccc(C)nc5F)c5ccccc45)cc3)ccnc2c1 [compound 178],0.027 µM
5,COc1cnc2c(Sc3ccc(Nc4nnc(N5CCCC(C)(C)C5)c5ccccc45)cc3)ccnc2c1 [compound 555],0.064 µM
6,COc1cnc2c(Oc3ccc(Nc4nnc(-c5cc(F)cc(F)c5)c5ccccc45)cc3)ccnc2c1 [compound 539],0.081 µM
7,Clc1ccc(-c2nnc(Nc3ccc(Sc4ccnc5cc[nH]c45)cc3)c3ccccc23)cc1 [compound 463],0.01 µM
8,Cc1csc(-c2nnc(Nc3ccc(Oc4ccnc5cc(C#N)ccc45)cc3)c3ccccc23)c1 [compound 170],0.007 µM
9,FC(F)(F)Oc1ccc2nccc(Oc3ccc(Nc4nnc(-c5ccc(Cl)cc5)c5ccccc45)cc3)c2c1 [compound 574],0.119 µM
10,"COc1cnc2c(Oc3ccc(Nc4nnc(-c5ccccc5)c5ccccc45)cn3)ccnc2c1 [Example 41, N-(6-(7-methoxy-1,5-naphthyridin-4-yloxy)pyridin-3-yl)-4-phenylphthalazin-1-amine]",0.195 µM
11,C[Si](C)(C)c1cc2nccc(Sc3ccc(Nc4nnc(Cl)c5ccccc45)cc3)c2o1 [compound 484],> 1.2 µM
12,CCc1ccc(-c2nnc(Nc3ccc(Oc4ccnc5cc(OC)cnc45)cc3)c3ccccc23)s1 [compound 229],0.026 µM
13,"Clc1ccc(-c2nnc(Nc3ccc(Oc4ccnc5ccsc45)cc3)c3ccccc23)cc1 [compound 250, 4-(4-chlorophenyl)-N-(4-(thieno[3,2-b]pyridin-7-yloxy)phenyl)-1-phthalazinamine]",0.031 µM
14,Brc1cnc2c(Oc3ccc(Nc4nnc(-c5ccccc5)c5ccccc45)cc3)ncnc2c1 [compound 599],> 1.2 µM
15,COc1cc(OC)c2c(Oc3ccc(Nc4nnc(-c5ccc(Cl)cc5)c5ccccc45)cc3)ccnc2c1 [compound 435],0.009 µM
16,Clc1ccc(-c2nnc(Nc3ccc(Sc4ccnc5cc(Br)cnc45)cc3)c3ccccc23)cc1 [compound 324],0.029 µM
17,COc1cnc2c(Oc3ccc(Nc4nnc(-c5ccc(F)c(OC)c5)c5ccccc45)cc3)ccnc2c1 [compound 180],0.025 µM
18,"Cn1cc(-c2ccc3nccc(Oc4ccc(Nc5nnc(-c6ccccc6)c6ccccc56)cc4)c3c2)cn1 [Example 45, N-(4-(6-(1-Methyl-1H-pyrazol-4-yl)quinolin-4-yloxy)phenyl)-4-phenylphthalazin-1-amine]",0.056 µM
19,Cc1cccc(-c2nnc(Nc3ccc(Sc4ccnc5ccoc45)cc3)c3ccccc23)n1 [compound 488],0.241 µM
20,Cc1ccc(-c2nnc(Nc3ccc(Oc4ccnc5ccsc45)cc3)c3ccccc23)cc1 [compound 252],0.027 µM
21,CCc1cc(-c2cc(C)cs2)nnc1Nc1ccc(Oc2ccnc3cc(OC)cnc23)cc1 [compound 210],0.056 µM
22,COc1cnc2c(Oc3ccc(Nc4nnc(-c5ccc(C)nc5)c5ccccc45)cc3)ccnc2c1 [compound 268],0.066 µM

# Same assay, conditions: Homo sapiens, HeLa, HeLa cells, average, read-out: 24h_4NPloidy EC50_IP (uM Avg)
row,Compound,EC50
1,Clc1ccc(-c2nnc(Nc3ccc(Oc4ccnc5cc(OCc6ccccc6)cnc45)cc3)c3ccccc23)cc1 [compound 610],0.014 µM
2,COc1ccc2c(C(O)c3ccc(Nc4nnc(-c5ccc(Cl)cc5)c5ccccc45)cc3)ccnc2c1 (stereo not shown) [compound 614],0.053 µM
